Active and inactive are the calls of the source. The calls are words filed in the database; no cut-off is given here.
Experiments:
Escherichia coli [1] = test: Photodynamic inactivation of Escherichia coli ATCC 25922 assessed as reduction in cell survival at 5 uM preincubated for 10 mins followed by visible light irradiation for 270 mins; type: functional
Staphylococcus warneri [2] = test: Photodynamic inactivation of Staphylococcus warneri assessed as reduction in intracellular double stranded DNA concentration at 0.5 uM preincubated for 10 mins followed by visible light irradiation for 5 mins by fluorimetric analysis relative to control; type: functional; set-up: scale not given: the % may be the effect or the level left
Staphylococcus warneri [3] = test: Photodynamic inactivation of Staphylococcus warneri assessed as reduction in cell survival at 0.5 uM preincubated for 10 mins followed by visible light irradiation for 15 mins; type: functional
Staphylococcus warneri [4] = test: Photodynamic inactivation of Staphylococcus warneri assessed as reduction in cell survival at 0.5 uM preincubated for 10 mins followed by visible light irradiation for 5 mins; type: functional
Staphylococcus warneri [5] = test: Photodynamic inactivation of Staphylococcus warneri assessed as reduction in cell survival at 0.5 uM preincubated for 10 mins followed by visible light irradiation for 10 mins; type: functional
Escherichia coli [6] = test: Photodynamic inactivation of Escherichia coli ATCC 25922 assessed as reduction in intracellular double stranded DNA concentration at 5 uM preincubated for 10 mins followed by visible light irradiation for 90 mins by fluorimetric analysis relative to control; type: functional; set-up: scale not given: the % may be the effect or the level left
Escherichia coli [7] = test: Photodynamic inactivation of Escherichia coli ATCC 25922 assessed as reduction in intracellular double stranded DNA concentration at 5 uM preincubated for 10 mins followed by visible light irradiation for 15 mins by fluorimetric analysis relative to control; type: functional; set-up: scale not given: the % may be the effect or the level left
Staphylococcus warneri [8] = test: Photodynamic inactivation of Staphylococcus warneri assessed as reduction in cell survival at 0.5 uM preincubated for 10 mins followed by visible light irradiation for 20 mins; type: functional
Staphylococcus warneri [9] = test: Photodynamic inactivation of Staphylococcus warneri assessed as reduction in intracellular double stranded DNA concentration at 0.5 uM preincubated for 10 mins followed by visible light irradiation for 30 mins by fluorimetric analysis relative to control; type: functional; set-up: scale not given: the % may be the effect or the level left
Escherichia coli [10] = test: Photodynamic inactivation of Escherichia coli ATCC 25922 assessed as reduction in cell survival at 5 uM preincubated for 10 mins followed by visible light irradiation for 15 mins; type: functional
Staphylococcus warneri [11] = test: Photodynamic inactivation of Staphylococcus warneri assessed as reduction in intracellular double stranded DNA concentration at 0.5 uM preincubated for 10 mins followed by visible light irradiation for 40 mins by fluorimetric analysis relative to control; type: functional; set-up: scale not given: the % may be the effect or the level left
Staphylococcus warneri [12] = test: Photodynamic inactivation of Staphylococcus warneri assessed as reduction in intracellular double stranded DNA concentration at 0.5 uM preincubated for 10 mins followed by visible light irradiation for 10 mins by fluorimetric analysis relative to control; type: functional; set-up: scale not given: the % may be the effect or the level left
Staphylococcus warneri [13] = test: Drug uptake in Staphylococcus warneri at 0.5 uM incubated for 10 mins followed by compound washout by spectrofluorimetric analysis relative to control; type: ADME, organism-based; conditions: in vivo
Staphylococcus warneri [14] = test: Photodynamic inactivation of Staphylococcus warneri assessed as reduction in intracellular double stranded DNA concentration at 0.5 uM preincubated for 10 mins followed by visible light irradiation for 15 mins by fluorimetric analysis relative to control; type: functional; set-up: scale not given: the % may be the effect or the level left
Escherichia coli [15] = test: Photodynamic inactivation of Escherichia coli ATCC 25922 assessed as reduction in cell survival at 5 uM preincubated for 10 mins followed by visible light irradiation for 90 mins; type: functional
Staphylococcus warneri [16] = test: Photodynamic inactivation of Staphylococcus warneri assessed as reduction in cell survival at 0.5 uM preincubated for 10 mins followed by visible light irradiation for 40 mins; type: functional
Staphylococcus warneri [17] = test: Photodynamic inactivation of Staphylococcus warneri assessed as reduction in cell survival at 0.5 uM preincubated for 10 mins followed by visible light irradiation at 5 J cm'-2 light dose; type: functional
Staphylococcus warneri [18] = test: Photodynamic inactivation of Staphylococcus warneri assessed as reduction in intracellular double stranded DNA concentration at 0.5 uM preincubated for 10 mins followed by visible light irradiation for 20 mins by fluorimetric analysis relative to control; type: functional; set-up: scale not given: the % may be the effect or the level left
Escherichia coli [19] = test: Photodynamic inactivation of Escherichia coli ATCC 25922 assessed as reduction in intracellular double stranded DNA concentration at 5 uM preincubated for 10 mins followed by visible light irradiation for 270 mins by fluorimetric analysis relative to control; type: functional; set-up: scale not given: the % may be the effect or the level left
Escherichia coli [20] = test: Photodynamic inactivation of Escherichia coli ATCC 25922 assessed as reduction in cell survival at 5 uM preincubated for 10 mins followed by visible light irradiation for 180 mins; type: functional
Escherichia coli [21] = test: Drug uptake in Escherichia coli ATCC 25922 at 5 uM after 10 mins by spectrofluorimetric analysis; type: ADME, organism-based; conditions: in vivo
Escherichia coli [22] = test: Photodynamic inactivation of Escherichia coli ATCC 25922 assessed as reduction in cell survival at 5 uM preincubated for 10 mins followed by visible light irradiation at 8 J cm'-2 light dose; type: functional
Escherichia coli [23] = test: Photodynamic inactivation of Escherichia coli ATCC 25922 assessed as reduction in cell survival at 5 uM preincubated for 10 mins followed by visible light irradiation for 60 mins; type: functional
Escherichia coli [24] = test: Photodynamic inactivation of Escherichia coli ATCC 25922 assessed as reduction in cell survival at 5 uM preincubated for 10 mins followed by visible light irradiation for 30 mins; type: functional
Escherichia coli [25] = test: Photodynamic inactivation of Escherichia coli ATCC 25922 assessed as reduction in intracellular double stranded DNA concentration at 5 uM preincubated for 10 mins followed by visible light irradiation for 60 mins by fluorimetric analysis relative to control; type: functional; set-up: scale not given: the % may be the effect or the level left
Escherichia coli [26] = test: Photodynamic inactivation of Escherichia coli ATCC 25922 assessed as reduction in intracellular double stranded DNA concentration at 5 uM preincubated for 10 mins followed by visible light irradiation for 180 mins by fluorimetric analysis relative to control; type: functional; set-up: scale not given: the % may be the effect or the level left
Staphylococcus warneri [27] = test: Drug uptake in Staphylococcus warneri at 0.5 uM after 10 mins by spectrofluorimetric analysis; type: ADME, organism-based; conditions: in vivo
Escherichia coli [28] = test: Photodynamic inactivation of Escherichia coli ATCC 25922 assessed as reduction in intracellular double stranded DNA concentration at 5 uM preincubated for 10 mins followed by visible light irradiation for 30 mins by fluorimetric analysis relative to control; type: functional; set-up: scale not given: the % may be the effect or the level left
Staphylococcus warneri [29] = test: Photodynamic inactivation of Staphylococcus warneri assessed as reduction in cell survival at 0.5 uM preincubated for 10 mins followed by visible light irradiation for 30 mins; type: functional
Escherichia coli [30] = test: Drug uptake in Escherichia coli ATCC 25922 at 5 uM incubated for 10 mins followed by compound washout by spectrofluorimetric analysis relative to control; type: ADME, organism-based; conditions: in vivo
Escherichia coli [31] = test: Photodynamic inactivation of Escherichia coli ATCC 25922 assessed as reduction in nucleic acid level at 5 uM preincubated for 10 mins followed by visible light irradiation for 60 mins by agarose gel electrophoresis; type: functional, organism-based
Staphylococcus warneri [32] = test: Photodynamic inactivation of Staphylococcus warneri assessed as reduction in DNA level at 0.5 uM preincubated for 10 mins followed by visible light irradiation for 5 to 30 mins by agarose gel electrophoresis; type: functional, organism-based
Escherichia coli [33] = test: Photodynamic inactivation of Escherichia coli ATCC 25922 assessed as reduction in rRNA level at 5 uM preincubated for 10 mins followed by visible light irradiation for 15 mins by agarose gel electrophoresis; type: functional, organism-based
Escherichia coli [34] = test: Photodynamic inactivation of Escherichia coli ATCC 25922 assessed as reduction in 23S rRNA level at 5 uM preincubated for 10 mins followed by visible light irradiation for 30 mins by agarose gel electrophoresis; type: functional, organism-based
Escherichia coli [35] = test: Photodynamic inactivation of Escherichia coli ATCC 25922 assessed as reduction in intracellular double stranded DNA concentration at 5 uM preincubated for 10 mins followed by visible light irradiation by fluorimetric analysis; type: functional, organism-based; conditions: TDE = time-dependent effect
Staphylococcus warneri [36] = test: Photodynamic inactivation of Staphylococcus warneri assessed as reduction in DNA level at 0.5 uM preincubated for 10 mins followed by visible light irradiation for 40 mins by agarose gel electrophoresis; type: functional, organism-based
Escherichia coli [37] = test: Photodynamic inactivation of Escherichia coli ATCC 25922 assessed as reduction in 16S rRNA level at 5 uM preincubated for 10 mins followed by visible light irradiation for 30 mins by agarose gel electrophoresis; type: functional, organism-based
Escherichia coli [38] = test: Photodynamic inactivation of Escherichia coli ATCC 25922 assessed as reduction in genomic DNA level at 5 uM preincubated for 10 mins followed by visible light irradiation for 15 mins by agarose gel electrophoresis; type: functional, organism-based
Staphylococcus warneri [39] = test: Photodynamic inactivation of Staphylococcus warneri assessed as reduction in genomic DNA level at 0.5 uM preincubated for 10 mins followed by visible light irradiation for 5 to 15 mins by agarose gel electrophoresis; type: functional, organism-based
Staphylococcus warneri [40] = test: Photodynamic inactivation of Staphylococcus warneri assessed as reduction in intracellular double stranded DNA concentration at 0.5 uM preincubated for 10 mins followed by visible light irradiation by fluorimetric analysis; type: functional, organism-based; conditions: TDE = time-dependent effect
Escherichia coli [41] = test: Photodynamic inactivation of Escherichia coli ATCC 25922 assessed as reduction in degraded DNA and mRNA level at 5 uM preincubated for 10 mins followed by visible light irradiation for 30 mins by agarose gel electrophoresis; type: functional, organism-based
Staphylococcus warneri [42] = test: Photodynamic inactivation of Staphylococcus warneri assessed as reduction in nucleic acid level at 0.5 uM preincubated for 10 mins followed by visible light irradiation for 20 to 40 mins by agarose gel electrophoresis; type: functional, organism-based

SMILES	log10CFU/ml (Escherichia coli [1])	Activity (Staphylococcus warneri [2]) [%]	log10CFU/ml (Staphylococcus warneri [3])	log10CFU/ml (Staphylococcus warneri [4])	log10CFU/ml (Staphylococcus warneri [5])	Activity (Escherichia coli [6]) [%]	Activity (Escherichia coli [7]) [%]	log10CFU/ml (Staphylococcus warneri [8])	Activity (Staphylococcus warneri [9]) [%]	log10CFU/ml (Escherichia coli [10])	Activity (Staphylococcus warneri [11]) [%]	Activity (Staphylococcus warneri [12]) [%]	Drug uptake (Staphylococcus warneri [13]) [%]	Activity (Staphylococcus warneri [14]) [%]	log10CFU/ml (Escherichia coli [15])	log10CFU/ml (Staphylococcus warneri [16])	Activity (Staphylococcus warneri [17]) [%]	Activity (Staphylococcus warneri [18]) [%]	Activity (Escherichia coli [19]) [%]	log10CFU/ml (Escherichia coli [20])	further results
C[n+]1ccc(-c2c3nc(c(-c4cc[n+](C)cc4)c4ccc([nH]4)c(-c4cc[n+](C)cc4)c4nc(c(-c5cc[n+](C)cc5)c5ccc2[nH]5)C=C4)C=C3)cc1.[I-].[I-].[I-].[I-]	6.2	19.6	2.8	0.4	1.8	99.8	14.3	3.3	45.3	0.2	58.2	37.9	47	38.1	5.7	5.6	99.9	38.3	99.8	6.1	Drug uptake (Escherichia coli [21]): Active; Activity (Escherichia coli [22]): 99.9%; log10CFU/ml (Escherichia coli [23]): 4.4; log10CFU/ml (Escherichia coli [24]): 2.9; Activity (Escherichia coli [25]): 81.2%; Activity (Escherichia coli [26]): 99.8%; Drug uptake (Staphylococcus warneri [27]): Active; Activity (Escherichia coli [28]): 42.8%; log10CFU/ml (Staphylococcus warneri [29]): 4.7; Drug uptake (Escherichia coli [30]): 35%
C[n+]1ccc(-c2c3nc(c(-c4cc[n+](C)cc4)c4ccc([nH]4)c(-c4cc[n+](C)cc4)c4ccc([nH]4)c(-c4cc[n+](C)cc4)c4nc2C=C4)C=C3)cc1																					Activity (Escherichia coli [31]): Active; Activity (Staphylococcus warneri [32]): Active; Activity (Escherichia coli [33]): inactive; Activity (Escherichia coli [34]): Active; Activity (Escherichia coli [35]): tde; Activity (Staphylococcus warneri [36]): inactive; Activity (Escherichia coli [37]): Active; Activity (Escherichia coli [38]): inactive
C[n+]1ccc(-c2c3nc(c(-c4cc[n+](C)cc4)c4ccc([nH]4)c(-c4c(F)c(F)c(F)c(F)c4F)c4nc(c(-c5cc[n+](C)cc5)c5ccc2[nH]5)C=C4)C=C3)cc1.[I-].[I-].[I-]	7.7	66.2	5.6	4.8	5.3	98.3	23.1	6.9	91.9	3.1	92.2	69.9	74	78	5.8	7.5	99.9	82.8	99.6	7.2	Activity (Staphylococcus warneri [39]): Active; Activity (Escherichia coli [31]): Active; Activity (Staphylococcus warneri [40]): tde; Activity (Escherichia coli [41]): Active; Activity (Escherichia coli [33]): Active; Activity (Staphylococcus warneri [42]): Active; Activity (Escherichia coli [35]): tde; Drug uptake (Escherichia coli [21]): Active; Activity (Escherichia coli [22]): 99.9%; log10CFU/ml (Escherichia coli [23]): 5.4; log10CFU/ml (Escherichia coli [24]): 5.2; Activity (Escherichia coli [25]): 98.4%; Activity (Escherichia coli [26]): 99.1%; Drug uptake (Staphylococcus warneri [27]): Active; Activity (Escherichia coli [28]): 55.1%; log10CFU/ml (Staphylococcus warneri [29]): 7.2; Drug uptake (Escherichia coli [30]): 47%; Activity (Escherichia coli [38]): Active
